We go through seven compounds from paper PMC12195695, “Multifaceted Biological Activity of Rutin, Quercetin, and Quercetin’s Glucosides” (Molecules, 2025).

Values joined by “and” are separate entries in the source; they are usually repeats but may differ in a detail not shown here. Equal values may be shown once. Where a name gives a salt, the structure may show the parent alone. Read-outs that look alike come from different tables or passages of the source. Marks after values point to notes of the source that are not given here.

The test system of data set [1] is advanced glycation endproduct (AGE) formation in BSA/MGO model system. In words: Inhibition of AGE formation, BSA/MGO model system. In kind it is biochemical. Particulars: for IC50: BSA/MGO, fluorescence, linear regression, read-out: IC50 against AGE formation, BSA/MGO Model System; for anti-AGE activity higher in comparison to Ru / anti-AGE activity higher in relation to AG: BSA/MGO model system. On the procedure: (§1) The positive control aminoguanidine and standards of rutin, quercetin, and quercetin’s glucosides were dissolved in DMSO and then in a phosphate buffer. The inhibitory activity against the formation of AGEs was analyzed in BSA/glucose and BSA/MGO model systems, as reported by Thornalley, and the fluorescent intensity was measured. The percentage of inhibition of AGEs was calculated from the obtained fluorescence of the test solution with or without inhibitors.

Data set [2] has as its system advanced glycation endproduct (AGE) formation in BSA/glucose model system. In words: Inhibition of AGE formation, BSA/glucose model system. Type of data set: biochemical. The settings on record: fluorescence, linear regression, read-out: IC50 against AGE formation, BSA/Glucose Model System. The procedure:
as §1

The next data set concerns ACE. Further details: method as in earlier work. The settings on record: same fluorimetric method; ref 30 (Guerrero et al.); read-out: IC50 for ACE inhibition (literature); cited from earlier work.
A short description of data set [3]: Cyclic voltammetry: oxidation potential and antioxidant activity vs Trolox. In kind it is physicochemical. Particulars: for Antioxidant power class based on first oxidation potential: classification according to Blasco et al. [51]; for Antioxidant Activity: cyclic voltammetry, area under anodic wave, 0.1 mM compound, Trolox regression, n = 6. On the procedure: A galvanostat G 750 (Gamry Ins., Warminster, PA, USA) with a conventional three-electrode system was used for the cyclic voltammetric experiments, with Ru, Q, Ru, Q4′G, Q3G, and Q34′G (0.1 mM in 80% methanol) or Trolox solutions (0.1–2.5 mM) mixed with 0.2 M sodium acetate–acetic buffer (pH 4.5 in 80% methanol) at a ratio of 1:1 (v/v), as has previously been described in detail. The cyclic voltammograms were acquired in the range of −100 to 1300 mV at a scanning rate of 100 mV s^−1.

The target of data set [4] is T1, angiotensin-converting enzymes (ACEs) from porcine kidneys (EC 3.4.15.1) (Sus scrofa, UniProt F1RRW5).
T1 construct: angiotensin-converting enzymes (ACEs) from porcine kidneys (EC 3.4.15.1); purchased Sigma (Sigma Chemical Company, Saint Louis, MO, USA); host or cells: porcine kidney
T1 sequence (F1RRW5 34-1309): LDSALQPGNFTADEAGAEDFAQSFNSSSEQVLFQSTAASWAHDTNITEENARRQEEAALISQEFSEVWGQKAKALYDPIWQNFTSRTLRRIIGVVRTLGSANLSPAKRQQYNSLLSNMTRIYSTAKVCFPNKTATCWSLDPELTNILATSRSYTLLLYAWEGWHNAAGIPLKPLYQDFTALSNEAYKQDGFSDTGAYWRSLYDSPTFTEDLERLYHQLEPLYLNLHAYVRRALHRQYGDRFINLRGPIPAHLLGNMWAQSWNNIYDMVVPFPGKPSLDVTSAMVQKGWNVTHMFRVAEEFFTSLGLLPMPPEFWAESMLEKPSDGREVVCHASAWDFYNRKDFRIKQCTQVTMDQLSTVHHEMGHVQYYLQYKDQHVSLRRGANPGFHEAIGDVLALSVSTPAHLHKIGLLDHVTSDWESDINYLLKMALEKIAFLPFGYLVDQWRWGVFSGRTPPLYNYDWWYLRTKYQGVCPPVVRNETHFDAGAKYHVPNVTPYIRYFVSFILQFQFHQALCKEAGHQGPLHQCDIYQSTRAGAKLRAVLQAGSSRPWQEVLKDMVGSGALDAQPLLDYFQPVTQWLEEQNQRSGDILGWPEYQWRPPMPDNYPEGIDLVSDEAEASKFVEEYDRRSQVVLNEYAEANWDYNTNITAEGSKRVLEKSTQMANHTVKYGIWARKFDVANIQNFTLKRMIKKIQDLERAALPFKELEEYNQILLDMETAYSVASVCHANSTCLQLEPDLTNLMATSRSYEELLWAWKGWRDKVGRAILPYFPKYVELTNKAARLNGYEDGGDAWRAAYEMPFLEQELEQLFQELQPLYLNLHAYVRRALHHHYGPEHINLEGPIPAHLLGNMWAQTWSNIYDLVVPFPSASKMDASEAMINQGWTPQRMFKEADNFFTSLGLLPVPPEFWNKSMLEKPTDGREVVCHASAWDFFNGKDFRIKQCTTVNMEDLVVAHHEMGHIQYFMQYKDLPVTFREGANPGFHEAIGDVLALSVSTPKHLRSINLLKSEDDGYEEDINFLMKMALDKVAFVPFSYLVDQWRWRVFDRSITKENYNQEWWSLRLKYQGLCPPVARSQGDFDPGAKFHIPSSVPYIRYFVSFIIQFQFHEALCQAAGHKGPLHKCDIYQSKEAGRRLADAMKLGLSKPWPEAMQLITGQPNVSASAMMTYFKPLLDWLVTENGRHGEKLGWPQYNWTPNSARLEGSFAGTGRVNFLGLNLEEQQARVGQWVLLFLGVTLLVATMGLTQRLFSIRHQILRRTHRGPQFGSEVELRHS
In words: biochemical. On the procedure: Standards of rutin, quercetin, and quercetin’s glucosides were dissolved in 80% methanol. Each standard was diluted to various concentrations using deionized water to determine its ACE inhibitory activity, expressed as an IC50 value. The ACE stock solution was prepared by dissolving enzyme in glycerol at 50% with Buffer A (protein concentration approximately 150 μg/mL), whereas the working solution was prepared by the dilution of the stock solution with Buffer B to make a protein concentration of approximately 7.5 μg/mL. The substrate stock solution was prepared by dissolving the whole content (50 mg) of Abz-Gly-Phe (NO2)-Pro (Bachem) in 10.33 mL of Buffer C (concentration approximately 10 mM), while the working solution was prepared by the dilution of the substrate stock solution with Buffer C to make a final Abz-Gly-Phe (NO2)-Pro concentration of approximately 0.45 mM. […] The angiotensin-converting enzyme (ACE) inhibitory activity assay was conducted according to the method of Sentandreu and Toldra. The fluorescence generated was measured using a Tecan Infinite M1000 PRO multiscan microplate fluorometer (TK Biotech, Warsaw, Poland). To calculate the % of inhibition of ACE, the following equation was used: […] = 100 − (ΔRFUsample ∗ 100/ΔRFUnegative control) where ΔRFU = RFUat time 30 − RFUat time 0.
The IC50 value, indicating the sample concentration at a 50% inhibition of ACE activity, was determined using linear regression analysis of logarithmic plots. At least 3 replicates for each standard solution were conducted. Results were expressed as IC50 values.

The nature of data set [5]: Cyclic voltammetry: oxidation potential and antioxidant activity vs Trolox. In kind it is physicochemical. The settings on record: vs. Ag/AgCl, 50 mM acetate-acetic buffer (pH 5.5) in 80% methanol, scan rate 100 mV s^-1, n = 6.

On to `N=C(N)NN` [AG, aminoguanidine hydrochloride, reference compound], for which the results for the IC50 in data set [1] and in data set [2] were 531 ± 28 µM and 432 ± 38 µM, respectively.

For `C[C@@H]1O[C@@H](OC[C@H]2O[C@@H](Oc3c(-c4ccc(O)c(O)c4)oc4cc(O)cc(O)c4c3=O)[C@H](O)[C@@H](O)[C@@H]2O)[C@H](O)[C@H](O)[C@H]1O` [Ru, quercetin-3-O-rutinoside], the IC50 is 64 µM in the data set on ACE, 413 ± 24 µM in data set [1], 121 ± 1.56 µM in data set [4] and 197 ± 8 µM in data set [2]. In data set [3], the “Antioxidant power class based on first oxidation potential” value (“Antioxidant power class based” below) is given as “intermediate potentials (compounds with intermediate potentials (0.3 V < Ep < 0.8 V))”. In addition, the “Antioxidant Activity” value in data set [3] is given as 2.04 ± 0.07 ^c mM Trolox. Also, the “First Oxidation Potential” value in data set [5] is 410 mV and 410 ± 5 ^c mV.

Turning to `N[C@@H](CCC(=O)N[C@@H](CS)C(=O)NCC(=O)O)C(=O)O` [GSH, reduced glutathione, reference compound], in data set [4] (IC50 for ACE inhibition, concentration range 1.0-0.01 mM, linear regression, n = 6), the IC50 was 41.7 µM.

As to `O=c1c(O[C@@H]2O[C@H](CO)[C@@H](O)[C@H](O)[C@H]2O)c(-c2ccc(O[C@@H]3O[C@H](CO)[C@@H](O)[C@H](O)[C@H]3O)c(O)c2)oc2cc(O)cc(O)c12` [Q3,4′G, quercetin-3,4′-di-O-β-glucoside], in data set [1], the “anti-AGE activity higher in comparison to Ru” value is on record as 27%, the “anti-AGE activity higher in relation to AG” value is 64% and the IC50 was determined as 324 ± 19 µM. Further, in data set [3], the “Antioxidant power class based” value is given as “low antioxidant power (a compound with a low antioxidant power (0.8 V < Ep < 1.3 V))” and the “Antioxidant Activity” value is given as 1.07 ± 0.05 ^d mM Trolox. Moreover, the IC50 in data set [4] was 115 ± 1.25 µM. Also, the IC50 in data set [2] turned out to be 89 ± 5 µM. The “First Oxidation Potential” value in data set [5] was 800 mV and 800 ± 7 ^a mV.

For the compound `O=c1c(O)c(-c2ccc(O[C@@H]3O[C@H](CO)[C@@H](O)[C@H](O)[C@H]3O)c(O)c2)oc2cc(O)cc(O)c12` [Q4′G, quercetin-4′-O-β-glucoside], in data set [1], the “anti-AGE activity higher in comparison to Ru” value worked out at 11%, the “anti-AGE activity higher in relation to AG” value was 44% and the IC50 came out at 370 ± 23 µM. Besides, in data set [3], the “Antioxidant power class based” value is given as “intermediate potentials (compounds with intermediate potentials (0.3 V < Ep < 0.8 V))” and the “Antioxidant Activity” value was 1.99 ± 0.09 ^c mM Trolox. Besides, the IC50 in data set [4] is 143 ± 1.44 µM. In addition, in data set [2], the IC50 is 259 ± 16 µM. Moreover, the “First Oxidation Potential” value in data set [5] was 482 mV and 482 ± 3 ^b mV.

For the compound `O=c1c(O[C@@H]2O[C@H](CO)[C@@H](O)[C@H](O)[C@H]2O)c(-c2ccc(O)c(O)c2)oc2cc(O)cc(O)c12` [Compound Q3G, quercetin-3-O-β-glucoside], in data set [1], the “anti-AGE activity higher in comparison to Ru” value is reported as 6%, the “anti-AGE activity higher in relation to AG” value worked out at 37% and the IC50 is 389 ± 22 µM. Besides, in data set [3], the “Antioxidant power class based” value is “intermediate potentials (compounds with intermediate potentials (0.3 V < Ep < 0.8 V))” and the “Antioxidant Activity” value is reported as 2.59 ± 0.04 ^b mM Trolox. In addition, the IC50 in data set [4] turned out to be 135.2 ± 1.04 µM. Moreover, the IC50 in data set [2] came to 47 ± 3 µM. In addition, the “First Oxidation Potential” value in data set [5] was 390 mV and 390 ± 4 ^d mV.

With `O=c1c(O)c(-c2ccc(O)c(O)c2)oc2cc(O)cc(O)c12` [Q, quercetin], the IC50 in the data set with ACE is 43 µM; in data set [1], 466 ± 17 µM; in data set [4], 59.29 ± 0.48 µM; in data set [2], 243 ± 12 µM. Moreover, in data set [3], the “Antioxidant Activity” value is 3.92 ± 0.20 ^a mM Trolox. Moreover, in data set [5], the “First Oxidation Potential” value was 310 mV and 310 ± 4 ^e mV.
